From ChEMBL document CHEMBL1201862, “PubChem BioAssay data set” (2004) come the findings set out here.

The structures appear in SMILES notation. The source made the active and inactive calls. Cut-off read from the data, not from the text of the source, for most assays here: actives have a measured EC50 and inactives only a lower limit.

Test [1] has as its target T1, Heat shock factor protein 1 (Mus musculus, UniProt P38532).
T1 sequence (P38532 whole entry): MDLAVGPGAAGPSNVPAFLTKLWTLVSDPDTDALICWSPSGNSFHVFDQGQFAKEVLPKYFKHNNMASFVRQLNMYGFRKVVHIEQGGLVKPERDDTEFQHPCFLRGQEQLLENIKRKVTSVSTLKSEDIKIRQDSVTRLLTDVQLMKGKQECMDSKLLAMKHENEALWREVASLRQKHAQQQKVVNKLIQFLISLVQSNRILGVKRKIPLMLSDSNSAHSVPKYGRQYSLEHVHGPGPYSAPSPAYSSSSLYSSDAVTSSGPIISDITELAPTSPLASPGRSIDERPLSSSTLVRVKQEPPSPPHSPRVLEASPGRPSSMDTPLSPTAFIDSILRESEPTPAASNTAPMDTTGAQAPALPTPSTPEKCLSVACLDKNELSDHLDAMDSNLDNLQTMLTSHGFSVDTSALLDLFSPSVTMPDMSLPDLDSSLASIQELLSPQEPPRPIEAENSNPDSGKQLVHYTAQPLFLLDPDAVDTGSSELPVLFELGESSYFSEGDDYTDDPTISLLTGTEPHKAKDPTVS
Briefly: enhancement of HSF1-driven luciferase signal – cell-based, NIH3T3, luminescence, dose retest, confirmation (AID 435004).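 Note: stress induced by proteasome inhibitor MG132 added 30 min after compound; luciferase reporter driven by HSF1 response element in NIH3T3 cells; actives raise luminescence as potentiators of the MG132 stress response.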 It is filed as functional.

Test [2] is described as follows: Luminescence Cell-Based Dose Retest to Confirm Inhibitors of Cancer Stem Cells. [Related pubchem assays (depositor defined):AID2717, AID2721]. Type of test: functional. Particulars: Homo sapiens.
Another test relates to H4. Briefly: Luminescence Cell-Based Dose Response HTS to Identify Activators of 5'UTR Stem-Loop Driven Prion Protein mRNA Translation in H4 Neuroglioblastoma Cells. [Related pubchem assays: 1829 (Project Summary), 1814 (Primary HTS)]. It is filed as functional. The settings on record: Homo sapiens.
Test [3] in a line: Luminescence Cell-Based Dose Confirmation HTS to Identify Activators of 5'UTR Stem-Loop Driven Alpha-Synuclein mRNA Translation in H4 Neuroglioblastoma Cells. [Related pubchem assays: 1829 (Project Summary), 1814 (Primary HTS)]. It is filed as functional.
The nature of test [4]: Luminescence Cell-Based Dose Response HTS to Identify Activators of Luciferase Translation or Activity in H4 […] Cells. [Related pubchem assays: 1829 (Project Summary), 1814 (Primary HTS)]. Type of test: functional.
The nature of test [5]: NIH3T3 cell viability loss – ATP luminescence, mouse fibroblasts, counter-screen, dose response (AID 2010).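 Note: cells exposed to compound for about 90 hours before reading.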 Type of test: functional, cell-based. (The purpose of a counterscreen is to sort out artefacts and off-target activity.)
The nature of test [6]: NIH-3T3 fibroblast cytotoxicity, dose response, cytotoxicity control, cell-based, fluorescence, Alamar Blue, secondary assay (AID 2327).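 Note: NIH-3T3 mouse fibroblasts cultured with fluconazole at 8 µg/mL.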 Type of test: functional.
The nature of test [7]: Trypanosoma cruzi growth suppression in host cells – NIH3T3 host cells, beta-gal luminescence, confirmation (AID 2044).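 Note: intracellular parasites grown in NIH/3T3 mouse fibroblasts as host cells; luminescent beta-galactosidase reporter signal from transgenic T. cruzi replicating inside host cells; inhibitors lower the luminescence signal.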 It is filed as functional, cell-based.
Test [8] in a line: fluconazole-exposed Candida albicans growth modulators – fluorescence, retest, confirmation (AID 2467). Type of test: functional, cell-based.
Test [9] deals with T1, Heat shock factor protein 1. Briefly: decrease of HSF1-responsive luciferase luminescence – cell-based, NIH3T3, dose retest, confirmation (AID 2382).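 Note: NIH3T3 fibroblasts with HSF1-driven luciferase reporter stressed by proteasome inhibitor MG132; luminescence from HSF1-driven luciferase expression after 8 hours of MG132 stress.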 It is filed as functional.
The subject of test [10] is Streptococcus sp. 'group A'. Briefly: Streptococcus pyogenes SK(-)GAS viability under kanamycin – luminescence, BacTiterGlo, confirmation, counter-screen for streptokinase expression inhibitor project, dose response (AID 1900). It is filed as functional, organism-based.
The target in another test is T2, Streptokinase A (Streptococcus pyogenes serotype M1, UniProt P10520).
T2 sequence (P10520 whole entry): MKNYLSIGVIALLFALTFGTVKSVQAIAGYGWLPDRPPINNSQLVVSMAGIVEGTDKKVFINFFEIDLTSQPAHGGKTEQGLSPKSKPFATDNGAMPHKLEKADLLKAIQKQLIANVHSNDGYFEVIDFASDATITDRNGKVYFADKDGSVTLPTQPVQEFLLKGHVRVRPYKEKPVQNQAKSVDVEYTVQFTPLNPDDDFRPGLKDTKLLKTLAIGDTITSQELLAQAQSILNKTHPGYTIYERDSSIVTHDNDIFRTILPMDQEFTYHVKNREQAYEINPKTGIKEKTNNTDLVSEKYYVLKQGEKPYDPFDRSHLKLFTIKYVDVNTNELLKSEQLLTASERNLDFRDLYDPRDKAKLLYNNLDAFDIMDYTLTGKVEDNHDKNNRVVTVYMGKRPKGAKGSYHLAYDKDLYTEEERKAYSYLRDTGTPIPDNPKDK
The test is described as follows: viability-normalized secreted streptokinase activity reduction – plasminogen activation absorbance, OD405, dose response (AID 1914).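 Note: secreted streptokinase activity via plasminogen activation per viability signal from cell pellet.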 Type of test: functional, Streptococcus pyogenes M1 GAS.

The next test has as its system Streptococcus. Briefly: GAS UMAA2166 growth inhibition – luminescence, BacTiterGlo, counter-screen for streptokinase expression inhibitor project, dose response (AID 1915).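 Note: potency for reduction of bacterial viability or growth.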 It is filed as functional, organism-based.
Test [11] is described as follows: viability of HCT116 lacking mutant beta-catenin – cell-based, human colon tumor, dose response (AID 1045).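 Note: HCT116 colon tumor cells with beta catenin knocked out; cells exposed to compound for 60 hours.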 Type of test: functional.
A short description of test [12]: P. falciparum Dd2 growth inhibitors, dose response, SYBR Green, cherry-picked samples (AID 1159567). Type of test: functional, cell-based.

Usually EC50 stands for the concentration giving half of the maximal effect. One may read the AC50 as the concentration at which the activity in the assay is half-maximal. Consider `O=C(c1ccco1)c1nnn(Cc2ccccc2)c1-c1ccccc1`, for which the EC50 in test [1] is > 260 µM (inactive). Further, the AC50 in [2] was 3.72 µM (active).

Turning to `Oc1ccc(-c2csc(-c3c[nH]c4ccccc34)n2)c(O)c1`, the values for the EC50 (in the test on H4; in test [3]; in test [4]) were 10.2 µM (active), 0.115 µM (active) and 4.35 µM (inconclusive), respectively.

In the case of `CCCN1CCN(C(=O)c2ccc(Sc3ccc(C)cc3)c(NC(C)=O)c2)CC1`, the EC50 in [1] is > 260 µM (inactive).

On to `O=C(c1ccccc1)c1c[nH]c(C(=O)NNc2ccccc2)c1`, for which the EC50 in test [5] is 7.46 µM (active); in test [6], 28.3 µM (active); in test [7], 1.71 µM (active); in [8], > 38 µM (not active). Moreover, the AC50 in test [2] is 1.09 µM (active).

Turning to `Cc1ccc(NC(=O)CCS(=O)(=O)c2ccc3c(c2)NC(=O)C(C)S3)nc1` (centres undefined), in test [1], the EC50 was > 260 µM (inactive).

As for `O=C(Cc1ccc(O)cc1)NC1CCCCCC1`, the EC50 was > 195 µM (not active) in test [9], 16.8 µM (active) in the test on H4, 47.4 µM (active) in test [3] and 52 µM (active) in [4].

Regarding `O=C1c2cccc3cccc(c23)C(=O)N1OS(=O)(=O)c1ccccc1`, in test [1], the EC50 is > 260 µM (inactive).

Take `Cc1ccc(C(=O)CC(=O)c2ccccc2C)c(O)c1`: the EC50 was 6.61 µM (active) in test [10]; > 150 µM (not active) at Streptokinase A; 9.83 µM (active) in the test on Streptococcus; > 150 µM (inactive) in [6]; > 38 µM (not active) in test [8].

Turning to `CCN(CC)c1ccc(C(=O)OCC(=O)c2ccco2)cc1`, the values for the EC50 (in the test on H4; in [3]; in [4]) were 57.4 µM (active), 14.1 µM (active) and 94 µM (active), respectively.

For the compound `O=C(CCCN1C(=O)c2cccc3cccc(c23)C1=O)Nc1ccon1`, the EC50 in test [1] is > 260 µM (inactive).

On to `CCCc1cc(O)nc(SCC(=O)Nc2ccc(C)cc2)n1`, for which the EC50 in [1] is > 260 µM (inactive).

As to `COc1cccc(-c2nnc(SCc3cccnc3)o2)c1`, the results for the EC50 (in the test with H4; in test [3]; in [4]) were 12.2 µM (active), 43.2 µM (active) and 33.1 µM (active), respectively.

Take `O=C(NCCc1c[nH]c2ccccc12)c1ccc(Cl)cc1`: the EC50 is > 120 µM (not active) in the test on H4, 21.9 µM (active) in test [3] and > 120 µM (not active) in [4].

As for `CC(/C=N/Nc1n[nH]c2c3ccccc3nc-2n1)=C\c1ccco1`, the figures for the EC50 (with H4; in [3]; in test [4]) were 15.5 µM (active), 11 µM (active) and 17.6 µM (active), respectively.

As for `CCOc1cc(/C=N/O)ccc1OS(=O)(=O)c1ccc(C)cc1`, the EC50 in test [11] was 312 µM (active).

With `O=C(CN1c2ccccc2Sc2ccccc21)N/N=C/c1ccc(Cl)cc1`, the EC50 in test [1] is > 260 µM (inactive).

`COc1ccc2c3c([nH]c2c1)[C@H](CO)N(Cc1ccc(F)cc1)CC31CCN(Cc2ccccn2)CC1`: the AC50 in [12] was 2.95 µM (active).

For `CCC(=O)N1CC2(C1)CN(Cc1cc(F)ccc1F)[C@@H](CO)c1[nH]c3cc(OC)ccc3c12`, the AC50 in test [12] was 7.9 µM (active).

Turning to `C/C=C/c1ccc2c(c1)[C@H]1[C@H](CCN1C(=O)C1CCCC1)[C@@H](CO)N2`, in test [12], the AC50 is 4.97 µM (active).

Consider `C/C=C/c1ccc([C@H]2[C@@H](CO)N(CC3CCCC3)C23CN(C(=O)CC2CC2)C3)cc1`, for which the AC50 in test [12] was 4.55 µM (active).

With `N#Cc1ccc(-c2ccc3c(c2)[C@H]2[C@H](CCN2C(=O)C2CCCC2)[C@H](CO)N3)cc1`, in test [12], the AC50 was 4.55 µM (active).

For `O=C1C2CCCCN2C(=O)N1CCCN1CCN(c2ccc(F)cc2)CC1` (centres undefined), in [1], the EC50 was > 260 µM (inactive).
